Experimental data: ChEMBL document CHEMBL1135488, “Prediction of volume of distribution values in humans for neutral and basic drugs using physicochemical measurements and plasma protein binding data” (J Med Chem, 2002); call rule not given here

Assays:
clinical = conditions: human, in vivo, iv
in vitro [1] = experiment: in vitro
[2] = pH 7.4
in vitro [3] = conditions: human, plasma
[4] = Ionisation constant (pKa); assay type: physicochemical

SMILES | Vd (clinical) | fraction unbound (in vitro [1]; tissues) | Fraction ionised [2] | fraction unbound (in vitro [3]) | fraction unbound (in vitro [1]) | chromatographic logD (physchem) | pKa [4]
CN(C)CCCN1c2ccccc2CCc2ccccc21 [IMIPRAMINE] | 18 L/kg | 0.002 | 0.992 | – | – | – | –
C[C@]12C=CC(=O)C=C1CC[C@@H]1[C@@H]2C(=O)C[C@@]2(C)[C@H]1CC[C@]2(O)C(=O)CO [PREDNISONE] | 0.97 L/kg | 0.113 | 0 | 0.25 | – | – | –
O=C(N[C@H](CO)[C@H](O)c1ccc([N+](=O)[O-])cc1)C(Cl)Cl [CHLORAMPHENICOL] | 0.94 L/kg | 0.225 | 0 | 0.47 | – | – | –
O=C(CCCN1CCC(O)(c2ccc(Cl)cc2)CC1)c1ccc(F)cc1 [HALOPERIDOL] | 18 L/kg | – | 0.947 | – | 0.002 | – | –
COC(=O)[C@H]1[C@@H](OC(=O)c2ccccc2)C[C@@H]2CC[C@H]1N2C [COCAINE] | 2 L/kg | 0.018 | 0.952 | 0.09 | – | – | –
CN1CCC[C@H]1c1cccnc1 [NICOTINE] | 2.6 L/kg | – | 0.834 | – | 0.15 | 0.23 | –
CN1CCN(C2=Nc3cc(Cl)ccc3Nc3ccccc32)CC1 [CLOZAPINE] | 5.4 L/kg | – | 0.629 | – | 0.004 | – | –
C=CCc1ccccc1OCC(O)CNC(C)C (stereo unspecified) [ALPRENOLOL] | 3.4 L/kg | 0.028 | 0.992 | 0.24 | – | – | –
CCN(CC)CCNC(=O)c1cc(Cl)c(N)cc1OC [METOCLOPRAMIDE] | 3.4 L/kg | – | 0.988 | – | 0.07 | – | –
Cc1cc(=O)n(-c2ccccc2)n1C [ANTIPYRINE] | 0.6 L/kg | 0.825 | 0 | – | – | – | Not Active
CC(=O)CCCCn1c(=O)c2c(ncn2C)n(C)c1=O [PENTOXIFYLLINE] | 4.2 L/kg | 0.095 | 0 | 1 | – | – | –
CC(C)(C)NCC(O)c1cc(O)cc(O)c1 (stereo unspecified) [TERBUTALINE] | 1.8 L/kg | 0.187 | 0.952 | – | – | – | –
COc1ccc([C@@H]2Sc3ccccc3N(CCN(C)C)C(=O)[C@@H]2OC(C)=O)cc1 [DILTIAZEM] | 3.1 L/kg | 0.028 | 0.82 | – | – | – | –
CN(C)CCC(c1ccc(Cl)cc1)c1ccccn1 (stereo unspecified) [CHLORPHENIRAMINE] | 3.2 L/kg | – | 0.986 | 0.3 | 0.037 | – | –
O=C(NCC1CCCCN1)c1cc(OCC(F)(F)F)ccc1OCC(F)(F)F (stereo unspecified) [FLECAINIDE] | 4.9 L/kg | 0.031 | 0.988 | 0.39 | – | – | –
Oc1ncnc2[nH]ncc12 [ALLOPURINOL] | 0.6 L/kg | 0.881 | 0 | 0.95 | – | – | Not Active
CN1C(=O)CN=C(c2ccccc2)c2cc(Cl)ccc21 [DIAZEPAM] | – | – | 0 | – | – | – | –
Clc1cccc(Cl)c1N=C1NCCN1 [CLONIDINE] | 2.1 L/kg | – | 0.817 | 0.8 | 0.158 | – | –
CNS(=O)(=O)Cc1ccc2[nH]cc(CCN(C)C)c2c1 | 0.65 L/kg | 0.661 | 0.992 | […] | – | – | 9.5

SMILES | Vd (clinical) | fraction unbound (in vitro [1]; tissues) | Fraction ionised [2] | fraction unbound (in vitro [3]) | fraction unbound (in vitro [1]) | chromatographic logD (physchem) | pKa [4]
C[C@]12CC[C@@H]3c4ccc(O)cc4CC[C@H]3[C@@H]1CC[C@@H]2O [ESTRADIOL] | 1.2 L/kg | 0.005 | 0 | 0.015 | – | – | –
O=C1CN=C(c2ccccn2)c2cc(Br)ccc2N1 [BROMAZEPAM] | 0.91 L/kg | 0.146 | 0 | 0.3 | – | – | Not Active
COCCc1ccc(OCC(O)CNC(C)C)cc1 (stereo unspecified) [METOPROLOL] | 4.2 L/kg | – | 0.995 | […] | 0.084 | – | –
CCCCCc1cc(O)c2c(c1)OC(C)(C)[C@@H]1CCC(C)=C[C@@H]21 [DRONABINOL] | 9.8 L/kg | 0.001 | 0 | 0.03 | – | 6.8 | –
CCCC(=O)Nc1ccc(OCC(O)CNC(C)C)c(C(C)=O)c1 (stereo unspecified) [ACEBUTOLOL] | 1.2 L/kg | 0.273 | 0.995 | – | – | – | –
Cc1cccc(C)c1OCC(C)N (stereo unspecified) [MEXILETINE] | 4.9 L/kg | – | 0.981 | 0.37 | 0.03 | – | –
CN/C(=N/CCSCc1nc[nH]c1C)NC#N [CIMETIDINE] | 1 L/kg | – | 0.271 | 0.81 | 0.374 | – | 6.97
COC(=O)C1=C(C)NC(C)=C(C(=O)OC)C1c1ccccc1[N+](=O)[O-] [NIFEDIPINE] | 0.78 L/kg | – | – | – | 0.023 | – | –
C#CCCCC(=O)c1cc(C(C)(C)C)c(O)c(C(C)(C)C)c1 [TEBUFELONE] | 31 L/kg | 8e-06 | 0 | 0.00067 | – | 5.56 | –
CCOC(=O)C1=C(C)NC(C)=C(C(=O)OC)C1c1cccc(Cl)c1Cl (stereo unspecified) [FELODIPINE] | – | – | 0 | – | – | 4.52 | –
CCN(CC)CCNC(=O)c1ccc(N)cc1 [PROCAINAMIDE] | – | – | 0.986 | – | – | – | –
CN(C)CCCN1c2ccccc2Sc2ccc(Cl)cc21 [CHLORPROMAZINE] | 21 L/kg | – | 0.986 | 0.03 | 0.001 | – | –
O=c1n(CCCN2CCN(c3cccc(Cl)c3)CC2)nc2ccccn12 [TRAZODONE] | 1 L/kg | 0.03 | 0.197 | 0.07 | – | – | 6.79
CNCCCN1c2ccccc2CCc2ccccc21 [DESIPRAMINE] | 20 L/kg | – | 0.999 | – | 0.003 | – | –
O=C1Nc2ccc(Cl)cc2C(c2ccccc2Cl)=NC1O (racemic) [LORAZEPAM] | 1.3 L/kg | 0.029 | 0 | – | – | – | –
CC(=O)O[C@H]1C(=O)[C@@]2(C)[C@H]([C@H](OC(=O)c3ccccc3)[C@]3(O)C[C@H](OC(=O)[C@H](O)[C@@H](NC(=O)c4ccccc4)c4ccccc4)C(C)=C1C3(C)C)[C@]1(OC(C)=O)CO[C@@H]1C[C@@H]2O [PACLITAXEL] | 2.4 L/kg | – | 0 | 0.03 | 0.005 | 4.45 | –
CN1CC[C@]23c4c5ccc(O)c4O[C@H]2[C@@H](O)C=C[C@H]3[C@H]1C5 [MORPHINE] | – | – | 0.858 | – | – | – | –
COc1cc2c(c(OC)c1OC)-c1ccc(OC)c(=O)cc1[C@@H](NC(C)=O)CC2 [COLCHICINE] | 4.2 L/kg | – | 0 | – | – | 0.9 | –
Cn1c(=O)c2c(ncn2C)n(C)c1=O [CAFFEINE] | 0.61 L/kg | 0.543 | 0 | – | – | – | –

SMILES | Vd (clinical) | fraction unbound (in vitro [1]; tissues) | Fraction ionised [2] | fraction unbound (in vitro [3]) | fraction unbound (in vitro [1]) | chromatographic logD (physchem) | pKa [4]
CCN(CC)CC(=O)Nc1c(C)cccc1C [LIDOCAINE] | – | – | 0.776 | – | – | – | –
CNC(=C[N+](=O)[O-])NCCSCc1ccc(CN(C)C)o1 [RANITIDINE] | 1.3 L/kg | 0.289 | 0.922 | – | – | – | 8.47
Cc1nc2n(c(=O)c1CCN1CCC(c3noc4cc(F)ccc34)CC1)CCCC2 [RISPERIDONE] | – | – | 0.764 | – | 0.042 | – | –
CCCNCC(O)COc1ccccc1C(=O)CCc1ccccc1 (stereo unspecified) [PROPAFENONE] | – | – | 0.987 | – | – | – | –
COc1cc(Cc2cnc(N)nc2N)cc(OC)c1OC [TRIMETHOPRIM] | 1.6 L/kg | – | 0.319 | 0.63 | 0.166 | – | –
COc1ccc2[nH]c([S+]([O-])Cc3ncc(C)c(OC)c3C)nc2c1 (racemic) [OMEPRAZOLE] | 0.34 L/kg | 0.082 | 0 | – | – | – | Not Active
C[C@]12C=CC(=O)C=C1CC[C@@H]1[C@@H]2[C@@H](O)C[C@@]2(C)[C@H]1CC[C@]2(O)C(=O)CO [PREDNISOLONE] | 1.5 L/kg | – | 0 | 0.075 | 0.021 | – | –
CN/C(=C\[N+](=O)[O-])NCCSCc1csc(CN(C)C)n1 [NIZATIDINE] | 1.2 L/kg | 0.0289 | 0.134 | 0.78 | – | – | 6.59
CCCCc1oc2ccccc2c1C(=O)c1cc(I)c(OCCN(CC)CC)c(I)c1 [AMIODARONE] | – | – | 0.955 | – | – | – | –
C[C@@H]1C[C@H]2[C@@H]3CCC4=CC(=O)C=C[C@]4(C)[C@@]3(F)[C@@H](O)C[C@]2(C)[C@@]1(O)C(=O)CO [DEXAMETHASONE] | – | – | 0 | – | 0.182 | – | –
CN1[C@@H]2CC[C@H]1C[C@@H](OC(=O)C(CO)c1ccccc1)C2 (stereo partly specified) [ATROPINE] | – | – | 0.996 | – | – | – | –
CC(C)NCC(O)COc1cccc2ccccc12 (stereo unspecified) [PROPRANOLOL] | 4.3 L/kg | – | 0.991 | – | 0.012 | – | –
CN(C)CCOC(c1ccccc1)c1ccccc1 [DIPHENHYDRAMINE] | – | – | 0.98 | – | – | – | –
Cc1ncc([N+](=O)[O-])n1CCO [METRONIDAZOLE] | 0.74 L/kg | 0.609 | 0 | 0.89 | – | – | Not Active
C=C[C@H]1C[N@@]2CC[C@H]1C[C@@H]2[C@@H](O)c1ccnc2ccc(OC)cc12 [QUINIDINE] | – | 0.019 | 0.817 | – | – | – | –
Cc1nnc2n1-c1ccc(Cl)cc1C(c1ccccc1)=NC2 [ALPRAZOLAM] | 0.72 L/kg | 0.881 | 0 | – | – | – | –
OC(Cn1cncn1)(Cn1cncn1)c1ccc(F)cc1F [FLUCONAZOLE] | 0.6 L/kg | 0.814 | 0 | – | – | – | Not Active
CN1C(=O)C(O)N=C(c2ccccc2Cl)c2cc(Cl)ccc21 (stereo unspecified) [LORMETAZEPAM] | 6.8 L/kg | 0.007 | 0 | – | – | – | –
